Data from patent US8754233B2, “Pyrazolylbenzothiazole derivatives and their use as therapeutic agents” (Dermira (Canada), Inc., priority 2002, dated 2014).

Assays:
IL-12 on macrophages = test: Inhibition of IL-12 release from stimulated macrophages; type: cell-based, mouse; conditions: LPS and IFN-γ stimulated primary macrophages, ELISA
Experimental: Peritoneal exudate macrophages were isolated by peritoneal lavage with ice-cold sterile physiological saline 24 hours after intraperitoneal injection of BALB/c mice with 0.5 mL of sterile Zymosan A (1 mg/0.5 mL 0.9% saline). […] Murine primary macrophage are activated following incubation with LPS in the presence of sub-optimal doses of IFN-γ. Upon activation, macrophages participate actively in the onset of inflammation by releasing bioactive molecules that amplify the initial inflammatory response. […] Briefly, IL-12 levels in the supernatants from stimulated macrophages were determined with PharMingen's OptEIA™ ELISA set developed using an anti-mouse IL-12 antibody pair and mouse rIL-12 standard (PharMingen). Maxisorp™ F16 multiwell strips (Nunc, Roskilde, Denmark) were coated with anti-mouse IL-12 capture Ab (at recommended concentration) in 0.1 M NaHCO3, pH 9.5, 100 μL/well, overnight at 4° C. […] Plates were washed 3× with PBST and duplicate samples (100 μL/well) or standards (100 μL/well) in diluent buffer were incubated for 2 h. Plates were washed five times with PBST and incubated with biotinylated anti-mouse IL-12 and avidin-horseradish peroxidase (HRP) conjugate (at concentrations recommended by the manufacturer) for 1 h. […] Peritoneal exudate macrophages were isolated by peritoneal lavage with ice-cold sterile physiological saline 24 hours after intraperitoneal injection of BALB/c mice with 0.3 ml of sterile zymosan A (1 mg/0.5 mL 0.9% saline). […] All treatments were replicated six times. Cells were incubated for an additional 24 hours, and cell free culture supernatants from each well were collected for NO and cytokine determination. The remaining cells were stained with crystal violet to determine effect of the compound on cell survival.

ConA 1° splenocytes = test: Survival of ConA 1° splenocytes (cytotoxicity by MTS staining); type: cell-based, mouse; conditions: ConA-stimulated splenocytes

SMILES | IC50 (IL-12 on macrophages) | IC50 (ConA 1° splenocytes)
COc1cc2sc(-c3c(N4CCNCC4)n[nH]c3N)nc2cc1F [4-(5-Fluoro-6-methoxybenzothiazole)-5-piperizin-1-yl-2H-pyrazol-3-ylamine] | 23.4 µM | 17.5 µM
COc1cc2sc(-c3c(NCCN(C)C)n[nH]c3N)nc2cc1F [N^3-(2-Dimethylaminoethyl)-4-(5-fluoro-6-methoxybenzothiazole)-1H-pyrazole-3,5-diamine] | > 25 µM | > 25 µM
